Among the data in article PMC4201344 (ACS Chemical Biology, 2014) are EC50, Hill and Imax values, retold here.

For this assay, the target named is T1, GluClβ T10′S (Caenorhabditis elegans, UniProt Q17328, T287S).
T1 sequence (Q17328 23-434 T287S): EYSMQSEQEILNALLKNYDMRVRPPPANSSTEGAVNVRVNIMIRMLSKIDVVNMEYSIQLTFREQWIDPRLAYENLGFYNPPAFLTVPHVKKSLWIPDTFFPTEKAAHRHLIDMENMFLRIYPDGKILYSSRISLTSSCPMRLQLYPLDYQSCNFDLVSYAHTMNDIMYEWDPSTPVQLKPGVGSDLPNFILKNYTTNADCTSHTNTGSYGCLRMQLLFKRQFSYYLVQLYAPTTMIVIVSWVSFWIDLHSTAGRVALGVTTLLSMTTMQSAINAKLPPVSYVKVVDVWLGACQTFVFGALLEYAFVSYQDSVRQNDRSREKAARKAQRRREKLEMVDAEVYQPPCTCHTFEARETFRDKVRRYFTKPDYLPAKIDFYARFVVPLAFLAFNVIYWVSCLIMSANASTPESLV
Nature of the assay: two-electrode voltage clamp, Xenopus laevis oocytes. It counts as cell-based, C. elegans. The following applies: glutamate. A general note: Two-electrode voltage clamp holds a large cell at a set potential and records current.

As usually defined, the EC50 is the concentration giving half of the maximal effect. A lower EC50 goes with greater potency. On to `N[C@@H](CCC(=O)O)C(=O)O` [glutamate], for which the midpoint of the response, the EC50, lay at 11 ± 1 µM; the Hill is given as 2.5 ± 0.1; the Imax was 0.3–4 μA.
